{
  "source": "patent US20090081721A1",
  "about": "“HIGH-THROUGHPUT CELL ASSAYS” (The Regents of the University of California, priority 2007, published 2009)",
  "key": {"[1]": {"system": "P. mirabilis", "assay": "Isothermal titrative calorimetry (ITC) susceptibility test, power output and CFUs recovered", "format": "cell-based, Proteus mirabilis", "details": "for Exponential increase in power (μW) after injection (ITC thermogram): injection at 7,200 sec, 14,400 sec total; for Number of microbes (CFUs) in calorimetry chamber after incubation: 10^5 loaded, 4-hour monitoring; for Max dP/dt (100 save) after injection / Total μJ produced after injection: ciprofloxacin resistant, ampicillin resistant strain", "experimental": "(§1) In general, the susceptibility of bacterial strains can be tested by loading the chamber of an isothermal titrative calorimeter with a single bacterial strain, holding a constant temperature of 37° C. for a set time period (e.g., 14,400 seconds (4 hours)) and monitoring the power produced by the bacteria before and after application of an antimicrobial. Following the loading of the calorimeter, there is an initial energy spike within the first 1500 seconds (25 minutes) that is a normal equilibration period for a calorimeter. After the instrument and sample have equilibrated, the energy produced by a normally growing and dividing culture increases in an exponential manner, similar to a log phase growth curve of a microbial culture based on optical density (OD). Like the exponential increase in OD observed for a growing culture, the exponential increase in energy produced also seems to be associated with an increased number of cells in the medium because the number of cells retrieved from the calorimeter following a susceptibility test increases by about 2-3 orders of magnitude. (See Table 1).\n(§2) In one aspect, the method is practiced by loading into a Isothermal Titrative Calorimetry (ITC) various drugs or antibiotics to which the cells such as microorganisms may be susceptible. The antibiotics can be loaded at different rates and at different growth densities. The difference in power produced by the sample co-cultured with the antibiotics are then measured and compared to the same untreated culture or culture treated with water. The data is differentiated to find the maximum growth rate (dP/dt), and integrated to determine the total microjoules produced by the culture after an antimicrobial was injected. If the organism is resistant to the antibiotic, the maximum growth rate is similar to that when the co-cultured with water. If the microorganism is sensitive to the antibiotic, maximum dP/dt and total microjoule (μJ) for the antimicrobial treated sample are much lower than the untreated sample or the sample treated with water. See FIGS. 6 through 9 for exemplary ITC-generated growth data.\n(§3) The susceptibility of bacterial strains was tested by loading the chamber of an Isothermal Titrative Calorimeter (Calorimetry Sciences Corporation (CSC) and others are commercially available, see microcal.com/index, last accessed on Dec. 28, 2007) with a single bacterial strain, holding a constant temperature of 37° C. for 14,400 seconds (4 hours) and monitoring the power produced by the bacteria before and after application of an antimicrobial. Following the loading of the calorimeter, there is an initial energy spike within the first 1500 seconds (25 minutes) that is a normal equilibration period for a calorimeter. After the instrument and sample have equilibrated, the energy produced by a normally growing and dividing culture increases in an exponential manner, similar to a log phase growth curve of a microbial culture based on optical density (OD). Like the exponential increase in OD observed for a growing culture, the exponential increase in energy produced also seems to be associated with an increased number of cells in the medium because the number of cells retrieved from the calorimeter following a susceptibility test increases by 2-3 orders of magnitude. (See Table 1). A second spike in heat transfer being produced/absorbed in the calorimeter is associated with injection of either water or an antimicrobial into the injection chamber. This spike can be attributed to the enthalpy associated with dilution of the injected solution into the growth medium. […] If a strain is susceptible, a rise in power is not observed. If the strain is resistant to the agent or antimicrobial, the exponential rise in power is observed.\n. H2O, ampicillin, or ciprofloxacin was injected into the chamber at 7,200 sec (2 hours). […]"}, "[2]": {"system": "P. mirabilis", "assay": "Minimum inhibitory concentration (traditional susceptibility testing)", "format": "cell-based", "details": "Proteus mirabilis", "experimental": "(§4) Minimum inhibitory concentrations are determined by inoculating several cultures of bacteria in separate tubes or wells of broth that typically contain a 2-fold serial dilution of an antimicrobial."}, "[3]": {"system": "K. pneumoniae", "assay": "Minimum inhibitory concentration (traditional susceptibility testing)", "format": "cell-based", "details": "Klebsiella pneumoniae", "experimental": "as §4"}, "[4]": {"system": "E. coli", "assay": "Isothermal titrative calorimetry (ITC) susceptibility test, power output and CFUs recovered", "format": "cell-based", "details": "for Exponential increase in energy after injection (ITC thermogram): 10^4 wild-type antibiotic susceptible E. coli, 1 ml Mueller-Hinton broth, injection at 7,200 sec, 14,400 sec total", "experimental": "as §1\nas §2, with “See FIGS. 6 through 9 for exemplary ITC-generated growth data.” left out"}, "[5]": {"system": "K. pneumoniae", "assay": "Isothermal titrative calorimetry (ITC) susceptibility test, power output and CFUs recovered", "format": "cell-based, Klebsiella pneumoniae", "details": "for Number of microbes (CFUs) in calorimetry chamber after incubation: 10^5 loaded, 4-hour monitoring; for Max dP/dt (100 save) after injection / Total μJ produced after injection: ciprofloxacin susceptible, ampicillin resistant strain", "experimental": "as §1, §2, §3\n(§5) […]. H2O, ampicillin, or ciprofloxacin was injected into the chamber at 7,200 sec (2 hours). […]"}, "[6]": {"system": "A. baumanii", "assay": "Isothermal titrative calorimetry (ITC) susceptibility test, power output and CFUs recovered", "format": "cell-based, Acinetobacter baumanii", "details": "for Exponential increase in power (μW) after injection (ITC thermogram): 10^5 A. baumanii, 1 ml Mueller-Hinton broth, injection at 7,200 sec, 14,400 sec total; for Number of microbes (CFUs) in calorimetry chamber after incubation: 10^5 loaded, 4-hour monitoring; for Max dP/dt (100 save) after injection / Total μJ produced after injection: ciprofloxacin resistant, ampicillin resistant strain", "experimental": "as §1, §2, §3, §5"}, "[7]": {"system": "A. baumanii", "assay": "Minimum inhibitory concentration (traditional susceptibility testing)", "format": "cell-based", "details": "Acinetobacter baumannii; wild-type ampicillin and ciprofloxacin resistant A. baumanii strain used in ITC", "experimental": "as §4"}, "[8]": {"details": "10^5 P. mirabilis, 1 ml Mueller-Hinton broth"}},
  "note": "Like-named read-outs stand apart in the source and are kept apart here.",
  "data": [
    {"smiles": "CC1(C)S[C@@H]2[C@H](NC(=O)[C@H](N)c3ccccc3)C(=O)N2[C@H]1C(=O)O", "note": "[Ampicillin, ampicillin]", "values": [
      {"measurement": "Exponential increase in power (μW) after injection (ITC thermogram)", "setting": "[1]; [8]", "result": "exponential increase in power continued in all three samples"},
      {"measurement": "Number of microbes (CFUs) in calorimetry chamber after incubation", "setting": "[1]; Ampicillin 40 μg/ml", "result": "9.0 × 10^5 CFUs"},
      {"measurement": "Max dP/dt (100 save) after injection", "setting": "[1]; Ampicillin 40 μg/ml", "result": 0.027},
      {"measurement": "Total μJ produced after injection", "setting": "[1]; Ampicillin 40 μg/ml", "result": "161,844 μJ"},
      {"measurement": "MIC", "setting": "[2]", "result": "> 1020", "unit": "µg/mL"},
      {"measurement": "MIC", "setting": "[3]", "result": "> 1020", "unit": "µg/mL"},
      {"measurement": "Exponential increase in energy after injection (ITC thermogram)", "setting": "[4]", "result": "exponential increase in energy only continued in the sample injected with H2O"},
      {"measurement": "Exponential increase in power (μW) after injection (ITC thermogram)", "setting": "[5]; 10^5 K. pneumoniae, 1 ml Mueller-Hinton broth, injection at 7,200 sec, 14,400 sec total", "result": "exponential increase in power continued in the sample injected with H2O and ampicillin"},
      {"measurement": "Number of microbes (CFUs) in calorimetry chamber after incubation", "setting": "[5]; Ampicillin 40 μg/ml", "result": "2.0 × 10^7 CFUs"},
      {"measurement": "Max dP/dt (100 save) after injection", "setting": "[5]; Ampicillin 40 μg/ml", "result": 0.029},
      {"measurement": "Total μJ produced after injection", "setting": "[5]; Ampicillin 40 μg/ml", "result": "139,108 μJ"},
      {"measurement": "Exponential increase in power (μW) after injection (ITC thermogram)", "setting": "[6]", "result": "exponential increase in power continued in all three samples"},
      {"measurement": "Number of microbes (CFUs) in calorimetry chamber after incubation", "setting": "[6]; Ampicillin 40 μg/ml", "result": "3.0 × 10^7 CFUs"},
      {"measurement": "Max dP/dt (100 save) after injection", "setting": "[6]; Ampicillin 40 μg/ml", "result": 0.026},
      {"measurement": "Total μJ produced after injection", "setting": "[6]; Ampicillin 40 μg/ml", "result": "91,240 μJ"}
    ]},
    {"smiles": "O=C(O)c1cn(C2CC2)c2cc(N3CCNCC3)c(F)cc2c1=O", "note": "[Ciprofloxacin, ciprofloxacin]", "values": [
      {"measurement": "Rate of exponential increase in power after injection, compared with ampicillin or H2O", "setting": "[1]; 10^5 P. mirabilis, 1 ml Mueller-Hinton broth, injection at 7,200 sec", "result": "lower than for ampicillin or H2O"},
      {"measurement": "Exponential increase in power (μW) after injection (ITC thermogram)", "setting": "[1]; [8]", "result": "exponential increase in power continued in all three samples"},
      {"measurement": "Number of microbes (CFUs) in calorimetry chamber after incubation", "setting": "[1]; Ciprofloxacin 2 μg/ml", "result": "4.1 × 10^6 CFUs"},
      {"measurement": "Max dP/dt (100 save) after injection", "setting": "[1]; Ciprofloxacin 2 μg/ml", "result": 0.012},
      {"measurement": "Total μJ produced after injection", "setting": "[1]; Ciprofloxacin 2 μg/ml", "result": "79,439 μJ"},
      {"measurement": "MIC", "setting": "[2]; ampicillin resistant, weakly ciprofloxacin resistant P. mirabilis strain used in ITC, read-out: MIC", "result": 4, "unit": "µg/mL"},
      {"measurement": "MIC", "setting": "[7]", "result": "> 32", "unit": "µg/mL"},
      {"measurement": "Exponential increase in energy after injection (ITC thermogram)", "setting": "[4]", "result": "exponential increase in energy only continued in the sample injected with H2O"},
      {"measurement": "Number of microbes (CFUs) in calorimetry chamber after incubation", "setting": "[4]; Ciprofloxacin 2 μg/ml, 10^4 loaded, 4-hour monitoring", "result": "1.7 × 10^7 CFUs"},
      {"measurement": "Number of microbes (CFUs) in calorimetry chamber after incubation", "setting": "[5]; Ciprofloxacin 2 μg/ml", "result": "3.6 × 10^7 CFUs"},
      {"measurement": "Max dP/dt (100 save) after injection", "setting": "[5]; Ciprofloxacin 2 μg/ml", "result": 0.003},
      {"measurement": "Total μJ produced after injection", "setting": "[5]; Ciprofloxacin 2 μg/ml", "result": "24,676 μJ"},
      {"measurement": "Exponential increase in power (μW) after injection (ITC thermogram)", "setting": "[6]", "result": "exponential increase in power continued in all three samples"},
      {"measurement": "Number of microbes (CFUs) in calorimetry chamber after incubation", "setting": "[6]; Ciprofloxacin 2 μg/ml", "result": "2.1 × 10^7 CFUs"},
      {"measurement": "Max dP/dt (100 save) after injection", "setting": "[6]; Ciprofloxacin 2 μg/ml", "result": 0.027},
      {"measurement": "Total μJ produced after injection", "setting": "[6]; Ciprofloxacin 2 μg/ml", "result": "100,846 μJ"}
    ]},
    {"smiles": "CC(C)(O/N=C(\\C(=O)N[C@@H]1C(=O)N2C(C(=O)[O-])=C(C[n+]3ccccc3)CS[C@H]12)c1csc(N)n1)C(=O)O", "note": "[ceftazidime]", "values": [
      {"measurement": "MIC", "setting": "[2]", "result": 128, "unit": "µg/mL"}
    ]}
  ]
}
